From the supplement of paper PMC11451515

System: SEM cells
Test: cell viability relative to DMSO control; higher = less cytotoxic
Conditions: 48 h
In short: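 Three leukemia lines were tested: NOMO1 and SEM at 500 cells/well and P12-Ichikawa at 1000 cells/well. Each was adapted for at least four passages in each medium and seeded in 5 μl in 1536-well plates, and library compounds in DMSO were pin-dosed from 47 μM to 0.79 nM in 11 threefold steps. After 48 h at 37°C, CellTiter-Glo One luminescence was read. Viability is a percentage relative to DMSO wells on each plate, with cell-free wells as background.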

[1] = HPLM + 10% dialyzed FBS, 0.000781 µM
[2] = HPLM + 10% dialyzed FBS, 0.00234 µM
[3] = HPLM + 10% dialyzed FBS, 0.00702 µM
[4] = HPLM + 10% dialyzed FBS, 0.0211 µM
[5] = HPLM + 10% dialyzed FBS, 0.0632 µM
[6] = HPLM + 10% dialyzed FBS, 0.19 µM
[7] = HPLM + 10% dialyzed FBS, 0.569 µM
[8] = HPLM + 10% dialyzed FBS, 1.71 µM
[9] = HPLM + 10% dialyzed FBS, 5.12 µM
[10] = HPLM + 10% dialyzed FBS, 15.4 µM
[11] = HPLM + 10% dialyzed FBS, 46.1 µM
[12] = RPMI 5 mM glucose + 10% FBS, 0.000781 µM
[13] = RPMI 5 mM glucose + 10% FBS, 0.00234 µM
[14] = RPMI 5 mM glucose + 10% FBS, 0.00702 µM
[15] = RPMI 5 mM glucose + 10% FBS, 0.0211 µM
[16] = RPMI 5 mM glucose + 10% FBS, 0.0632 µM
[17] = RPMI 5 mM glucose + 10% FBS, 0.19 µM
[18] = RPMI 5 mM glucose + 10% FBS, 0.569 µM
[19] = RPMI 5 mM glucose + 10% FBS, 1.71 µM
[20] = RPMI 5 mM glucose + 10% FBS, 5.12 µM
[21] = RPMI 5 mM glucose + 10% FBS, 15.4 µM
[22] = RPMI 5 mM glucose + 10% FBS, 46.1 µM
[23] = RPMI 5 mM glucose + 10% dialyzed FBS, 0.000781 µM
[24] = RPMI 5 mM glucose + 10% dialyzed FBS, 0.00234 µM
[25] = RPMI 5 mM glucose + 10% dialyzed FBS, 0.00702 µM
[26] = RPMI 5 mM glucose + 10% dialyzed FBS, 0.0211 µM
[27] = RPMI 5 mM glucose + 10% dialyzed FBS, 0.0632 µM
[28] = RPMI 5 mM glucose + 10% dialyzed FBS, 0.19 µM
[29] = RPMI 5 mM glucose + 10% dialyzed FBS, 0.569 µM
[30] = RPMI 5 mM glucose + 10% dialyzed FBS, 1.71 µM
[31] = RPMI 5 mM glucose + 10% dialyzed FBS, 5.12 µM
[32] = RPMI 5 mM glucose + 10% dialyzed FBS, 15.4 µM
[33] = RPMI 5 mM glucose + 10% dialyzed FBS, 46.1 µM

Row | Structure (SMILES) | cell viability [1] | cell viability [2] | cell viability [3] | cell viability [4] | cell viability [5] | cell viability [6] | cell viability [7] | cell viability [8] | cell viability [9] | cell viability [10] | cell viability [11] | cell viability [12] | cell viability [13] | cell viability [14] | cell viability [15] | cell viability [16] | cell viability [17] | cell viability [18] | cell viability [19] | cell viability [20] | cell viability [21] | cell viability [22] | cell viability [23] | cell viability [24] | cell viability [25] | cell viability [26] | cell viability [27] | cell viability [28] | cell viability [29] | cell viability [30] | cell viability [31] | cell viability [32] | cell viability [33]
1 | O=C(NNC(=O)c1ccc(CN[S+](=O)([O-])c2ccc(F)c(Cl)c2)cc1)c1ccccc1 | 84.6% | 97.1% | 98.2% | 89.9% | 107% | 109% | 109% | 102% | 112% | 106% | 87% | 92.9% | 85.2% | 92.5% | 75% | 91.5% | 98.3% | 102% | 105% | 88.2% | 104% | 106% | 79.6% | 76.6% | 89.6% | 97.4% | 96% | 91.1% | 93.1% | 96.9% | 87% | 103% | 64.5%
2 | C#Cc1cccc(Nc2ncnc3cc(OC)c(OCCCCCCC(=O)NO)cc23)c1 | 118% | 119% | 104% | 110% | 95.9% | 73.4% | 44% | 15.1% | 6.25% | 5.23% | 3.28% | 88.3% | 91.8% | 75.6% | 81.3% | 69.8% | 46.3% | 26.5% | 6.61% | 4.45% | 3.81% | 1.74% | 119% | 123% | 108% | 120% | 117% | 59.2% | 28.8% | 9.73% | 6.06% | 5.12% | 2.79%
3 | O=C(CCCCCCC(=O)Nc1ccccc1)NO | 77.1% | 112% | 102% | 103% | 124% | 116% | 108% | 108% | 18.8% | 7.11% | 5.17% | 94.2% | 116% | 135% | 123% | 111% | 118% | 125% | 127% | 25% | 6.63% | 5.85% | 62.6% | 100% | 106% | 109% | 114% | 106% | 121% | 103% | 16.4% | 6.03% | 4.79%
4 | Cc1[nH]c(/C=C2\C(=O)Nc3ccc([S+](=O)([O-])Cc4c(Cl)cccc4Cl)cc32)c(C)c1C(=O)N1CCC[C@@H]1CN1CCCC1 | 100% | 103% | 102% | 103% | 112% | 96.6% | 94.8% | 76.5% | 6.42% | 45.4% | 9.75% | 116% | 114% | 107% | 116% | 111% | 118% | 109% | 101% | 25.7% | 56.7% | 34% | 84.9% | 99.4% | 85.3% | 94.2% | 86.8% | 93.2% | 92.4% | 72.5% | 42% | 42.3% | 26.7%
5 | CC(C)(C)c1cc(C(=O)O)c(NC(=O)Nc2ccc3[nH]ncc3c2)s1 | 95.4% | 97.5% | 89.6% | 101% | 100% | 70.7% | 100% | 98.6% | 85.9% | 93.1% | 82.2% | 112% | 93.2% | 94.2% | 107% | 101% | 90.8% | 111% | 104% | 101% | 93.1% | 77.7% | 95.2% | 93.1% | 83.3% | 97.5% | 99.6% | 88.9% | 102% | 91% | 87.5% | 93.7% | 73.2%
6 | COc1cc([C@@H]2c3cc4c(cc3[C@@H](O[C@@H]3O[C@@H]5CO[C@@H](c6cccs6)O[C@H]5[C@H](O)[C@H]3O)[C@H]3COC(=O)[C@H]23)OCO4)cc(OC)c1O | 94.9% | 85% | 89.8% | 95.1% | 83.1% | 85% | 90.8% | 16.4% | 77.9% | 15.3% | 4.57% | 96.7% | 120% | 110% | 103% | 101% | 84.7% | 78.7% | 14.4% | 80.1% | 12.6% | 5.23% | 86.7% | 88.9% | 79% | 85.1% | 79.6% | 68.6% | 66.8% | 9.66% | 63.4% | 11% | 3.6%
7 | COc1cc(N[S+](=O)([O-])c2ccc(N)cc2)nc(OC)n1 | 71.9% | 78.4% | 85.6% | 83% | 86.4% | 85.5% | 81.7% | 82.6% | 76.5% | 74.6% | 66.4% | 76.1% | 102% | 90.6% | 83.4% | 102% | 108% | 108% | 96.9% | 84.5% | 111% | 106% | 92.8% | 91.3% | 99.7% | 98.8% | 118% | 101% | 92.7% | 95.3% | 98.9% | 101% | 101%
